Laboratory results published in US20250381165A1, “Method of Use for Benzofuran Compounds” (Tampa Bay Research Institute, Inc., priority 2024, published 2025).

Assays:
[1] = biological target: T1, H-2Kb/SIINFEKL complex on DC2.4 (Mus musculus, UniProt P01901); experiment: BFA decay experiment (SIINFEKL off-rate) on DC2.4; assay type: cell-based, murine; details: 24 h pre-treatment, 1 h 30 nM SIINFEKL
T1 construct: DC2.4 are a C57Bl/6 lineage murine cell line and as such they express MHC class I H-2Kb and H-2Db; endogenous in cells; host or cells: DC2.4 (murine dendritic cell line, from Dr. Kenneth Rock)
T1 sequence (P01901 22-369): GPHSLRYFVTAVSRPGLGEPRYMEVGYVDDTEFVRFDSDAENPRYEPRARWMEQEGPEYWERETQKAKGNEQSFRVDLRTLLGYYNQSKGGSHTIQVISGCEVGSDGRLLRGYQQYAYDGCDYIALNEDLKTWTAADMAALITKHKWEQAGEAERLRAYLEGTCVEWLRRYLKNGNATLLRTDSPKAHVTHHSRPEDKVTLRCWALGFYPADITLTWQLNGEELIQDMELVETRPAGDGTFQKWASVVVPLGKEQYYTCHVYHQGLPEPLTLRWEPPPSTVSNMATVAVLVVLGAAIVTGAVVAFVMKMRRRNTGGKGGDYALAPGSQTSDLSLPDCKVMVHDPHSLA
T1 sequence (P01887 21-119 partner): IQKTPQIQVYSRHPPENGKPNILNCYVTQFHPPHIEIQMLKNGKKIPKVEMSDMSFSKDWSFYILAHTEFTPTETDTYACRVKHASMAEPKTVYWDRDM

[2] = biological target: T2, MHC class I/SIINFEKL complex on IMG cells (Mus musculus, UniProt P01901); experiment: SIINFEKL binding to IMG cells, flow cytometry with 25-D1.16 antibody; assay type: cell-based, murine; details: 25 μg/mL BzFβ 0-4 h
T2 construct: host or cells: IMG cell line
T2 sequence (P01901 22-369): as the sequence (P01901 22-369) above
T2 sequence (P01887 21-119 partner): as the sequence (P01887 21-119 partner) above
Method: By using an MHC class I H-2K^b specific antibody, a relative comparison of the surface MHC class I was measured before and after BzFβ treatment of DC2.4 and IMG cells. These cells were treated with 25 μg/mL BzFβ for 0-4 h. Cells were centrifuged and washed using cold FACS buffer (DPBS with 5% FBS, 2 mM EDTA, 0.1% sodium azide). Cells were blocked with Fc block (bioLegend™; cat. no. 101320) for 10 min to 15 min to inhibit non-specific binding, followed by staining with fluorophore-conjugated antibodies; one set of cells was stained with the PE-labeled MHC/SIINFEKL specific antibody (clone 25-D1.16, Invitrogen™, Thermo Fisher Scientific Inc., Waltham, MA; cat. no. 12-5743-82), and the other set was stained with the PE-labeled MHC class I H-2Kb specific antibody (AF6-88.5.5.3,Invitrogen™, Thermo Fisher Scientific Inc., Waltham, MA; cat. no. 12-5958-82) […], for 30 min at 4° C. After washing, the cells were subjected to flow cytometric analysis with the Attune NxT Flow Cytometer (Invitrogen). Cells were gated based on live single-cell populations and positives were assessed using isotype controls and fluor-minus-one analysis when needed. Data were analyzed using the Attune NxT software or FlowJo versions 10.7 and 10.8.

[3] = Detection of BzFβ in serum by HPLC; assay type: in vivo, C57BL/6NCrl mice
Method: Six- to ten-week-old male and female C57BL/6NCrl mice (Charles River Laboratories, Wilmington MA; cat. no. 027) were used for all animal studies. The mice were maintained in accord with the NIH Guide for the Care and Use of Laboratory Animals. Experimental procedures were performed in accord with research protocols approved by the Tampa Bay Research Institute's Institutional Animal Care and Use Committee. Mice were maintained in an INOVIVE individually ventilated cage system with 3 mice per cage containing 100% virgin wood pulp bedding (Harlan Teklad™, Harlan Sprague Dawley Inc., Indianapolis, IA; cat. no. 7099). Water and food (Harlan Teklad™, cat. no. 8640) were available ad libitum. The mice were maintained on a cycle of 12 h of light and 12 h of dark in an environment with a temperature of 74-76° […]. and 40-60% humidity. All cages underwent 40 air changes hourly in the negative pressure mode, in accordance with manufacturer's recommendations. Both the intake and exhaust air from the system were filtered through HEPA filters to maintain a clean environment. Stock solutions of BzFβ were solubilized in alkaline water (pH 10) and then sterile filtered through 0.22 µm syringe filters. BzFβ used for iv or im injections was diluted in 0.9% saline (normal saline). The stock solutions of the SIINFEKL peptide were prepared in 1× calcium/magnesium free Dulbecco's phosphate-buffered saline (DPBS; ThermoFisher Scientific, cat. no. 14190144).
After overnight fasting, six-to ten-week-old mice were gavaged with 1-2 mg of BzFβ solubilized in 200 μL alkaline water or were injected intramuscular (IM) or intravenous with 100 μg diluted in normal saline. After various times mice were anesthetized using 2.0% isoflurane with O2 at 1 L/min, and 200-500 μL of blood was collected in a microfuge tube containing 700 μL of 50 mM EDTA in DPBS as an anticoagulant. The blood samples were centrifuged at 4500×g for 20 min to separate the plasma from the cells. The resulting plasma (200 μL) was removed and extracted with 4 mL methanol. This mixture was vortexed for 30 s and centrifuged at 4000×g for 10 min at 4° C. The supernatant was collected and dried using a SpeedVac (SC210 Å) under a vacuum of 0.4 torr at 65° C. When dry, the sample was removed and resuspended in 100 μL methanol and then re-centrifuged to remove any precipitates. A 20 μL sample of this mixture was analyzed by HPLC.
BzFβ was detected in the serum using a Shimadzu high performance liquid chromatography (HPLC) system. The Shimadzu system consisted of two LC-20AR pumps, a SPD-M20A diode array UV-Vis detector, and a 20 μL injection loop onto a Phenomenex Luna […] Analytical PFP column 100 A (cat. no. OOF-4448-E0). Analysis and data collection were conducted using Shimadzu LabSolutions software. Samples ([…]) were injected onto the column and separated using a gradient of acetonitrile (ACN) and water as the mobile phase. The gradient started with 10% ACN and increased stepwise to 80% ACN for peak clarity. Buffer B was water adjusted to pH 2.5 using phosphoric acid. The column was kept at a constant temperature of 30° C. (Chai, et al., Comprehensive study of the intestinal absorption of four phenolic compounds after oral administration of Ananas comosus leaf extract in vivo and in vitro. Afr J Pharm Pharmacol. 2013 Jul. 15; 7(26):1781-92).
Following up on the prediction that BzFβ should be able to be absorbed through the GI tract and gain access to the systemic circulation, C57Bl/6crl mice were gavaged (po) with either 200 μL of alkaline water (negative control) or with 2 mg of BzFβ solubilized in 200 μL alkaline water. Fifteen minutes later, peripheral blood was obtained. The serum was extracted with methanol, lyophilized, and then examined by HPLC for the presence of BzFβ. […] BzFβ was then administered to another group of mice iv (100 μg), im ([…]), and po (1 mg). After 15 min, the serum was collected, extracted with methanol, and then analyzed by HPLC. […]

O=C(O)/C=C/c1ccc2occc2c1 [BzFβ, (2E)-3-(1-benzofuran-5-yl)prop-2-enoic acid]
decay rate of SIINFEKL / stability of H-2Kb/SIINFEKL complex [1]: did not affect the decay rate of SIINFEKL | binding of SIINFEKL to surface MHC class I [2]: able to enhance the binding of SIINFEKL | persistence in serum ([3]; 1, 2 and 3 h post im injection of 1 mg): still detectable | stability in vivo compared with dipeptides ([3]; GI tract and bloodstream): much more stable in the GI tract and bloodstream | presence in serum by HPLC ([3]; iv (100 μg), im (100 g), po (1 mg), 15 min): presence of the appropriate peak | earliest detection in blood plasma ([3]; oral administration): 30 min | latest detection in blood plasma ([3]; oral administration): 3 h | presence in serum by HPLC ([3]; po 2 mg, fifteen minutes): revealed the presence of BzFβ
